From article PMC5577515, “Peptide‐Directed Binding for the Discovery of Modulators of α‐Helix‐Mediated Protein–Protein Interactions: Proof‐of‐Concept Studies with the Apoptosis Regulator Mcl‐1” (Angewandte Chemie (International Ed. in English), 2017)
Where two headings read alike, the source gives them in different places. Values belong to the molecule of their own block, whether it stands above or below them. Peptide text beside a SMILES is read from it. * marks the point of attachment. X3 = O=C(Cn1cc(-c2ccc([N+](=O)[O-])cc2)nn1)*; X4 = O=C(Cn1cc(-c2c(O)ccc3ccccc23)nn1)*; X2 = COc1ccc(OC)c(-c2cn(CC(=O)*)nn2)c1; X1 = O=C(Cn1cc(-c2ccc(Cl)cc2Cl)nn1)*

Legend:
[1] = biological target: T1, Mcl-1 (UniProt P97287+Q07820); assay: Competitive fluorescence anisotropy (FA) assay, FITC-NoxaB displacement from Mcl-1; type: binding
T1 construct: amino acid residues 152-189 of mouse Mcl-1 fused with amino acid residues 209-327 of; 8 x His (N); TEV site (N); made in house; host or cells: E. coli BL21(DE3)pLysS
T1 sequence (P97287 152-189 limits assumed): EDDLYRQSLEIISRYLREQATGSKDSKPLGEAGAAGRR
T1 sequence (Q07820 209-327 limits assumed): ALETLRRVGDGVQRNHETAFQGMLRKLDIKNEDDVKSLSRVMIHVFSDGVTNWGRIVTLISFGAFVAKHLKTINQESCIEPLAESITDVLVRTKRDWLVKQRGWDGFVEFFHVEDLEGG
Experimental: Fmoc, 9-fluorenylmethylcarbony. IC50 determined by non -linear regression of at least three experiments.
4. Fluorescence Anisotropy Binding Assay
Fluorescence anisotropy was carried out on a BMG Labtech clariostar microplate reader with a fluorescence anisotropy optic measuring at 482/530 nm. Low -binding, Corning 96 -well black plates were used and all reagents used in the assay were biological grade and purchased from Sigma Aldrich and Novabioche m. All solutions were made using MilliQ water .
Anisotropy values were automatically calculated using the following formula […]
Where r = anisotropy, l a = parallel emission light, lb = perpendicular emission light and I = total […]
KD was determined using GraphPad Prism Version 6.0 software, using the One Site – Total binding […]
Where Bmax is the maximum specific binding, KD is the equilibrium binding constant, and NS is the slope of nonspecific binding. […]
IC50 was determined using GraphPad Prism Version 6.0 software, using a four-parameter logistic model, according to precedent from Ottmann and co-workers.[5] Errors are the transformed greater extreme of the standard error. […]
For binding each well contained 10 µL of Mcl -1 protein in 10-fold dilutions (0.37 pM to 3.7 µM) […]
protein were dissolved in PBS: 0.05% Tween -20 buffer at pH 7.4. Reagents were incubated for 30 min at room temperature prior to reading. Bubbles were removed and 8 data points were generated.
Figure S 1: Fluorescence Anisotropy direct titration.
To confirm reproducibility of
(µ) and standard deviations (σ) were inputted into the following equation:
Inhibition screens were carried out using 10 nM Mcl -1, 5 nM fluorescently-tagged peptide and 100 µM of inhibitor. Compounds were dissolved in DMSO. […]
control (DMSO) were used to define the mini mum and maximum values and ensure the assay was […]
(1 picture or pasted object on this page, not shown here) […]
Bubbles were removed and 8 data points were generated. […]

[2] = system: MiaPaCa-2 cells; assay: MTS cytotoxicity assay, MiaPaCa-2; type: cell-based; conditions: 37 °C, triplicate, at least three experiments, errors = transformed greater extreme of standard error, read-out: MiaPaCa-2 cell growth inhibition IC50
Experimental: (§1) CUSTOM_[…] ("<1>=[N+]",("charge", 0, 2)) […]
(§2) CUSTOM_[…] ("<1>=[N]=[N]",("bond",1,(2,3))) […]
(§3) CUSTOM_[…] ("<1>([C]=[C])=[N][N]",("bond",1,(3,5))) […]
(§4) The MiaPaCa-2 cell line, BxPC-3 cell line and AsPC-1 cell line were purchased from the European Collection of Cell Cultures (ECACC, Porton Down, UK). MiaPaCa-2 cells were cultured in DMEM media with 2 mM L-glutamine, 100 U/mL penicillin, 100 µg/mL streptomycin and 10% FCS.
(§5) BxPC-3 cells and AsPC-1 cells were cultured in RPMI-1640 media containing 2 mM L-glutamine, 100 U/mL penicillin, 100 µg/mL streptomycin and 10% FCS. Cells were sub-cultured twice weekly and maintained at 37 °C and 5% CO2.
(§6) The anti-proliferative activity of the compounds studied was assessed by MTS assay (Promega) following the manufacturer’s instructions. Cells were seeded at 5 x 103 / 100 μL in a 96-well plate and left untreated or treated with DMSO (vehicle control), or compounds 1-4 (100 μM – […], in well concentration) in triplicate for 72 h at 37 °C with 5% CO2. Following this, MTS assay reagent was added to each well and the plates incubated for 4 h at 37 °C with 5% CO2. The absorbance was measured at 492 nm using the BMG Labtech POLARstarOPTIMA microplate reader. […]

[3] = system: BxPC-3 cells; assay: MTS cytotoxicity assay, BxPC-3; type: cell-based; conditions: 37 °C, triplicate, at least three experiments, errors = transformed greater extreme of standard error, read-out: BxPC-3 cell growth inhibition IC50
Experimental: as §1, §2, §3, §4, §5, §6

[4] = system: AsPC-1 cells; assay: MTS cytotoxicity assay, AsPC-1; type: cell-based; conditions: 37 °C, triplicate, at least three experiments, errors = transformed greater extreme of standard error, read-out: AsPC-1 cell growth inhibition IC50
Experimental: as §1, §2, §3, §4, §5, §6

[5] = Table 2, inhibition of binding of 5 nM FITC-NoxaB to 10 nM Mcl-1, PBS, 0.05% Tween-20, pH 7.4, non-linear regression of at least three experiments, errors = transformed greater extreme of standard error, SEM, read-out: FA IC50
[6] = Table S2, binding inhibition of FITC-NoxaB to Mcl-1, small molecules not tested against cell lines, at least three experiments, errors = transformed greater extreme of standard error, SEM, read-out: FA IC50
[7] = Table S2, binding inhibition of FITC-NoxaB to Mcl-1, small molecules not tested against cell lines, at least three experiments, errors = transformed greater extreme of standard error, read-out: FA IC50
[8] = Table 1, inhibition of binding of 5 nM FITC-NoxaB to 10 nM Mcl-1, PBS, 0.05% Tween-20, pH 7.4, non-linear regression of at least three experiments, errors = transformed greater extreme of standard error, [b] <100 means <100 μM and >10 μM, accurate value not determined, read-out: FA IC50
[9] = Table S1, binding inhibition of FITC-NoxaB to Mcl-1, * less than 100 µM and greater than 10 µM, accurate IC50 not determined, read-out: FA IC50
[10] = Table 1, inhibition of binding of 5 nM FITC-NoxaB to 10 nM Mcl-1, PBS, 0.05% Tween-20, pH 7.4, non-linear regression of at least three experiments, errors = transformed greater extreme of standard error, [b] <100 means <100 μM and >10 μM, accurate value not determined, SEM, read-out: FA IC50

Molecule: CC[C@H](C)[C@H](NC(=O)[C@H](CCCNC(=N)N)NC(=O)[C@H](CCCNC(=N)N)NC(=O)[C@H](CC(C)C)NC(=O)[C@H](CCC(N)=O)NC(=O)[C@H](C)NC(=O)[C@H](C)NC(C)=O)C(=O)NCC(=O)N[C@@H](CC(=O)O)C(=O)N[C@@H](Cc1cn(Cc2ccccc2F)nn1)C(N)=O [Compound 2]
IC50 ([1]; SEM, read-out: FA IC50): 0.4 ± 0.3 µM

Molecule: CC[C@H](C)[C@H](NC(=O)[C@H](CCCNC(=N)N)NC(=O)[C@H](CCCNC(=N)N)NC(=O)[C@H](CC(C)C)NC(=O)[C@H](CCC(N)=O)NC(=O)[C@H](C)NC(=O)[C@H](C)NC(C)=O)C(=O)NCC(=O)N[C@@H](CC(=O)O)C(=O)N[C@@H](Cc1cn(Cc2ccccc2)nn1)C(N)=O [Compound 3]
IC50 ([1]; SEM, read-out: FA IC50): 0.7 ± 0.8 µM

Molecule: CC[C@H](C)[C@H](NC(=O)[C@H](CCCNC(=N)N)NC(=O)[C@H](CCCNC(=N)N)NC(=O)[C@H](CC(C)C)NC(=O)[C@H](CCC(N)=O)NC(=O)[C@H](C)NC(=O)[C@H](C)NC(C)=O)C(=O)NCC(=O)N[C@@H](CC(=O)O)C(=O)N[C@@H](Cc1cn(CC(=O)O)nn1)C(N)=O [Compound 4]
IC50 ([1]; SEM, read-out: FA IC50): 5.8 ± 4.6 µM

Molecule: COc1ccc(OC)c(-c2cn(CC(=O)N[C@@H](CCCCN)C(=O)N[C@H](C(=O)N[C@@H](CC(N)=O)C(=O)N[C@@H](CC(C)C)C(=O)N[C@@H](CCCNC(=N)N)C(=O)N[C@@H](CCC(N)=O)C(=O)N[C@@H](CCCCN)C(=O)N[C@@H](CC(C)C)C(=O)N[C@@H](CC(C)C)C(=O)N[C@@H](CC(N)=O)C(N)=O)C(C)C)nn2)c1 [Compound 9] (X2-KVNLRQKLLN-NH2)
IC50 ([1]; SEM, read-out: FA IC50): 0.1 ± 0.1 µM

Molecule: CC(C)C[C@H](NC(=O)[C@H](CC(C)C)NC(=O)[C@H](CCCCN)NC(=O)[C@H](CCC(N)=O)NC(=O)[C@H](CCCNC(=N)N)NC(=O)[C@H](CC(C)C)NC(=O)[C@H](CC(N)=O)NC(=O)[C@@H](NC(=O)[C@H](CCCCN)NC(=O)Cn1cc(-c2ccc([N+](=O)[O-])cc2)nn1)C(C)C)C(=O)N[C@@H](CC(N)=O)C(N)=O [Compound 11] (X3-KVNLRQKLLN-NH2)
IC50 ([1]; SEM, read-out: FA IC50): 3.5 ± 1.5 µM

Molecule: CC(C)C[C@H](NC(=O)[C@H](CC(C)C)NC(=O)[C@H](CCCCN)NC(=O)[C@H](CCC(N)=O)NC(=O)[C@H](CCCNC(=N)N)NC(=O)[C@H](CC(C)C)NC(=O)[C@H](CC(N)=O)NC(=O)[C@@H](NC(=O)[C@H](CCCCN)NC(=O)Cn1cc(-c2c(O)ccc3ccccc23)nn1)C(C)C)C(=O)N[C@@H](CC(N)=O)C(N)=O [Compound 13] (X4-KVNLRQKLLN-NH2)
IC50 ([1]; SEM, read-out: FA IC50): 8.2 ± 1.9 µM

Molecule: CC(C)C[C@H](NC(=O)[C@H](CC(C)C)NC(=O)[C@H](CCCCN)NC(=O)[C@H](CCC(N)=O)NC(=O)[C@H](CCCNC(=N)N)NC(=O)[C@H](CC(C)C)NC(=O)[C@H](CC(N)=O)NC(=O)[C@@H](NC(=O)[C@H](CCCCN)NC(=O)Cn1cc(-c2ccc(Cl)cc2Cl)nn1)C(C)C)C(=O)N[C@@H](CC(N)=O)C(N)=O [Compound 14] (X1-KVNLRQKLLN-NH2)
IC50 ([1]; SEM, read-out: FA IC50): 8.3 ± 3.6 µM

Molecule: Fc1ccccc1Cn1cc(C2=CCCCC2)nn1 [Compound 19]
IC50 [1, 5]: 0.217 ± 0.058 µM
IC50 ([2]; 72 h): > 100 µM
IC50 ([3]; 72 h, SEM): 21.6 ± 8.83 µM
IC50 ([4]; 72 h): > 100 µM

Molecule: C1=C(c2cn(Cc3ccccc3)nn2)CCCC1 [Compound 22, 1-benzyl-4-(cyclohex-1-en-1-yl)-1H-1,2,3-triazole]
IC50 ([1]; SEM, read-out: FA IC50): 1.68 ± 0.694 µM
IC50 ([2]; Homo sapiens, MIA PaCa-2, 72 h): > 100 µM
IC50 ([3]; Homo sapiens, BXPC-3, 72 h): > 100 µM
IC50 ([4]; Homo sapiens, ASPC1, 72 h): > 100 µM

Molecule: COC(=O)[C@H](Cc1cn(Cc2ccccc2C)nn1)NC(=O)OCC1c2ccccc2-c2ccccc21 [Compound 24, methyl (S)-2-((((9H-fluoren-9-yl)methoxy)carbonyl)amino)-3-(1-(2-methylbenzyl)-1H-1,2,3-triazol-4-yl)propanoate]
IC50 [1, 5]: 2.21 ± 0.877 µM
IC50 ([2]; 72 h, SEM): 2.14 ± 0.56 µM
IC50 ([3]; 72 h, SEM): 10.7 ± 2.72 µM
IC50 ([4]; 72 h, SEM): 2.28 ± 1.44 µM

Molecule: Clc1ccc(-c2cn(Cc3ccccc3)nn2)c(Cl)c1 [Compound 25, 1-benzyl-4-(2,4-dichlorophenyl)-1H-1,2,3-triazole]
IC50 ([1]; SEM, read-out: FA IC50): 5.5 ± 3.92 µM
IC50 ([2]; Homo sapiens, MIA PaCa-2, 72 h): > 100 µM
IC50 ([3]; Homo sapiens, BXPC-3, 72 h): > 100 µM
IC50 ([4]; Homo sapiens, ASPC1, 72 h): > 100 µM

Molecule: AAQLRRIGD [Compound 5]
IC50 [1, 8]: < 100 µM

Molecule: KVNLRQKLLN [Compound 10]
IC50 [1, 10]: 1.2 µM

Molecule: KVNLRQKLLN [Compound 12]
IC50 [1, 10]: 4.3 ± 0.9 µM

Molecule: KVNLRQKLLN [Compound 15]
IC50 [1, 8]: < 100 µM

Molecule: extended NoxaB peptide: the two NoxaB peptide fragments clicked together by CuAAC (AAQLRRIGDXKVNLRQKLLN; N-terminal acetyl)
IC50 ([1]; 5 nM FITC-NoxaB, 10 nM Mcl-1, read-out: IC50 (competitive FA assay, Mcl-1)): 7.23 ± 0.88 µM

Other lines, results leading:

IC50 [1, 6]: 0.497 ± 0.367 µM
Molecule: CCc1ccc(-c2cn(CC(=O)O)nn2)cc1 [Compound S10]

IC50 [1, 6]: 0.561 ± 0.13 µM
Molecule: O=C(O)Cn1cc(-c2ccc([N+](=O)[O-])cc2)nn1 [Compound S11]

IC50 [1, 6]: 0.766 ± 0.484 µM
Molecule: Cc1ccc(-c2cn(CC(=O)O)nn2)c(C)c1 [Compound S12]

IC50 [1, 6]: 1.32 ± 1.1 µM
Molecule: CCOc1ccc(-c2cn(CC(=O)O)nn2)cc1 [Compound S13]

IC50 [1, 6]: 1.37 ± 0.938 µM
Molecule: Fc1ccccc1Cn1cc(-c2ccccc2Cl)nn1 [Compound S14]

IC50 [1, 6]: 3.31 ± 0.488 µM
Molecule: CCC(C)c1cn(Cc2ccccc2)nn1 (stereo not shown) [Compound S15]

IC50 [1, 6]: 5.28 ± 1.69 µM
Molecule: COC(=O)[C@H](Cc1cn(CC(=O)O)nn1)NC(=O)OCC1c2ccccc2-c2ccccc21 [Compound S16]

IC50 [1, 7]: > 100 µM
Molecule: COC(=O)[C@H](Cc1cn(Cc2ccc(Br)cc2)nn1)NC(=O)OCC1c2ccccc2-c2ccccc21 [Compound S17]

IC50 [1, 7]: > 100 µM
Molecule: CCCCCCCc1cn(C23CC4CC(CC(C4)C2)C3)nn1 [Compound S18]

IC50 [1, 7]: > 100 µM
Molecule: CCCCCCCc1cn(Cc2ccccc2F)nn1 [Compound S19]

IC50 [1, 9]: < 100 µM
Molecule: AAQLRRIGD [Compound S1]

IC50 [1, 9]: < 100 µM
Molecule: KVNLRQKLLN [Compound S2]
